The values below come from patent US20130096136A1, “Inhibitors of Protein Tyrosine Kinase Activity” (METHYLGENE INC., priority 2011, published 2013).

In one assay the target is T1, VEGFR2 (KDR) (Homo sapiens, UniProt P35968).
T1 construct: made in house; host or cells: Sf9 cells (Spodoptera frugiperda), recombinant baculovirus
Description: In Vitro Receptor Tyrosine Kinase Assay (VEGF receptor KDR), DELFIA. The format is biochemical. Particulars: recombinant GST-VEGFR2 806-1356, enzyme 5 nM, ATP 0.6 uM (2x Km), poly(Glu4,Tyr) substrate; read-out: VEGFR_IC50_UM. The text has this: This test measures the ability of compounds to inhibit the enzymatic activity of recombinant human VEGF receptor enzymatic activity.
A 1.6-kb cDNA corresponding to the catalytic domain of VEGFR2 (KDR) (Genbank accession number AF035121 amino acid 806 to 1356) is cloned into the Pst I site of the pDEST20 Gateway vector (Invitrogen) for the production of a GST-tagged version of that enzyme. This construct is used to generate recombinant baculovirus using the Bac-to-Bac™ system according to the manufacturer's instructions (Invitrogen).
The GST-VEGFR2806-1356 protein is expressed in Sf9 cells (Spodoptera frugiperda) upon infection with recombinant baculovirus construct. Briefly, Sf9 cells grown in suspension and maintained in serum-free medium (Sf900 II supplemented with gentamycin) at a cell density of about 2×10^6 cells/ml are infected with the above-mentioned viruses at a multiplicity of infection (MOI) of 0.1 during 72 hours at 27° C. with agitation at 120 rpm on a rotary shaker. Infected cells are harvested by centrifugation at 398 g for 15 min. Cell pellets are frozen at −80° C. until purification is performed.
All steps described in cell extraction and purification are performed at 4° C. Frozen Sf9 cell pellets infected with the GST-VEGFR2806-1356 recombinant baculovirus are thawed and gently resuspended in Buffer A (PBS pH 7.3 supplemented with 1 μg/ml pepstatin, 2 μg/ml Aprotinin and leupeptin, 50 μg/ml PMSF, 50 μg/ml TLCK and 10 μM E64 and 0.5 mM DTT) using 3 ml of buffer per gram of cells. Suspension is Dounce homogenized and 1% Triton X-100 is added to the homogenate after which it is centrifuged at 22500 g, 30 min., 4° C. The supernatant (cell extract) is used as starting material for purification of GST-VEGFR2806-1356.
The supernatant is loaded onto a GST-agarose column (Sigma) equilibrated with PBS pH 7.3. Following a four column volume (CV) wash with PBS pH 7.3+1% Triton X-100 and 4 CV wash with buffer B (50 mM Tris pH 8.0, 20% glycerol and 100 mM NaCl), bound proteins are step eluted with 5 CV of buffer B supplemented with 5 mM DTT and 15 mM glutathion. GST-VEGFR2806-1356 enriched fractions from this chromatography step are pooled based on U.V. trace i.e. fractions with high O.D.280. Final GST-VEGFR2806-1356 protein preparations concentrations are about 0.7 mg/ml with purity approximating 70%. Purified GST-VEGFR2806-1356 protein stocks are aliquoted and frozen at −80° C. prior to use in enzymatic assay.
Inhibition of VEGFR/KDR is measured in a DELFIA™ assay (Perkin Elmer). The substrate poly(Glu4, Tyr) is immobilized onto black high-binding polystyrene 96-well plates. The coated plates are washed and stored at 4° C. During the assay, the enzyme is pre-incubated with inhibitor and Mg-ATP on ice in polypropylene 96-well plates for 4 minutes, and then transferred to the coated plates. The subsequent kinase reaction takes place at 30° C. for 10-30 minutes. ATP concentrations in the assay are 0.6 uM for VEGFR/KDR (2× the Km). Enzyme concentration is 5 nM. After incubation, the kinase reactions are quenched with EDTA and the plates are washed. Phosphorylated product is detected by incubation with Europium-labeled anti-phosphotyrosine MoAb. After washing the plates, bound MoAb is detected by time-resolved fluorescence in a Gemini SpectraMax reader (Molecular Devices). Compounds are evaluated over a range of concentrations, and IC50 values (concentration of compounds giving 50% inhibition of enzymatic activity) are determined.

The subject of assay [1] is VEGF-dependent phospho ERK1/2 (T202/Y204) in HUVEC cells. Description: VEGF-Dependent Erk Phosphorylation in HUVEC cells. Particulars: Homo sapiens, 1.5 h compound exposure, VEGF165 150 ng/ml, Western blot densitometry, read-out: P_ERK_IC50_UM. The format is cell-based. The source says: HUVEC cells are purchased from Cambrex Bio Science Walkersville, Inc and cultured according to the vendor's instructions. The full-length coding sequence of VEGF165 is cloned using the Gateway Cloning Technology (Invitrogen) for baculovirus expression Sf9 cells. VEGF165 is purified from conditioned media using a NaCl gradient elution from a HiTrap heparin column (GE Healthcare Life Sciences) followed by an imidazole gradient elution from a HiTrap chelating column (GE Healthcare Life Sciences), then buffer stored in PBS supplemented with 0.1% BSA and filter sterilized
Cells are seeded at 8000 cells/well of a 96 wells plate and grown for 48 hours. Cells are then grown overnight in serum and growth factor-free medium and exposed for 1.5 h to compounds dilutions. Following a 15 min incubation in medium, VEGF165 (150 ng/ml) cells are lysed in ice-cold lysis buffer (50 mM HEPES, pH 7.4, 150 mM NaCl, 1.5 mM MgCl2, 1% Triton X-100, 10% glycerol) containing 1 mM 4-(2 aminoethyl)benzenesulfonyl fluoride hydrochloride, 200 μM sodium orthovanadate, 1 mM sodium fluoride, 10 μg/mL leupeptin, 10 μg/mL aprotinin, 1 μg/mL pepstatin and 50 μg/mL Na-p-tosyl-L-lysine chloromethyl ketone hydrochloride and processed as Western blots to detect anti-phospho ERK1/2 (T202/Y204)(Cell Signaling Technologies). […]

T1 sequence (P35968 806-1356): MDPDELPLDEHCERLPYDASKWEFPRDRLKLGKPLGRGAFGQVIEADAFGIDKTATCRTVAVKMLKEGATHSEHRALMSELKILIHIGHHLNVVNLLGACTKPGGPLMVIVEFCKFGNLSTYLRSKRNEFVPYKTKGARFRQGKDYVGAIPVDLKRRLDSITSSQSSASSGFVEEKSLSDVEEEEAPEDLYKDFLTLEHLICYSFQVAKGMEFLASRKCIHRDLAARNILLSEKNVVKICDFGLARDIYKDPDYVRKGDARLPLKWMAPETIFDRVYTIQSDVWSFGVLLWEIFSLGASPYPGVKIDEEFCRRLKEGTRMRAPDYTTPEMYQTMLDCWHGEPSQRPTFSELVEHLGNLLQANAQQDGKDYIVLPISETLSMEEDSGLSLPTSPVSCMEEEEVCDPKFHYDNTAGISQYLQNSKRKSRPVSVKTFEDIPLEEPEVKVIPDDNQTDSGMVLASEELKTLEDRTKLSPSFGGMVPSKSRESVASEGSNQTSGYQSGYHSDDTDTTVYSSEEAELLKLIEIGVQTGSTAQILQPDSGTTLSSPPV

With `O=C1CCCN1Cc1ccc(-c2cc3nccc(Oc4ccc5oc(Nc6ccc(F)cc6)nc5c4)c3s2)nc1` [Compound 55], the IC50 at VEGFR2 (KDR) stood at 14 nM.

Consider `O=C1CCCN1Cc1ccc(-c2cc3nccc(Oc4ccc5nc(Nc6ccc(Cl)cc6)oc5c4)c3s2)nc1` [Compound 51], for which, at VEGFR2 (KDR), the IC50 was 278 nM. Same read-out and setting: for `O=C1CCCN1Cc1ccc(-c2cc3nccc(Oc4ccc5oc(Nc6cccc(Cl)c6)nc5c4)c3s2)nc1` [Compound 49] the value was 2 nM; for `COCCN(Cc1ccc(-c2cc3nccc(Oc4ccc5oc(NC6CC6)nc5c4)c3s2)nc1)C(C)=O` [Compound 63], 1580 nM; for `CCNC(=O)NC1CCN(Cc2ccc(-c3cc4nccc(Oc5ccc6oc(Nc7ccc(Cl)cc7)nc6c5)c4s3)nc2)CC1` [Compound 13], 7 nM. `CCn1cc(CN(Cc2ccc(-c3cc4nccc(Oc5ccc6oc(Nc7ccc(Cl)cc7)nc6c5)c4s3)nc2)C(C)C)nn1` [Compound 21, N-(4-Chlorophenyl)-5-(2-(5-((((1-ethyl-1H-1,2,3-triazol-4-yl)methyl)(isopropyl)amino)methyl)pyridin-2-yl)thieno[3,2-b]pyridin-7-yloxy)benzo[d]oxazol-2-amine]: the IC50 on VEGFR2 (KDR) was 8 nM.

As to `CCNC(=O)N(C)C1CCN(Cc2ccc(-c3cc4nccc(Oc5ccc6oc(Nc7ccc(Cl)cc7)nc6c5)c4s3)nc2)CC1` [Compound 15], the IC50 on VEGFR2 (KDR) was determined as 7 nM.

Regarding `O=C1CCCN1Cc1ccc(-c2cc3nccc(Oc4ccc5oc(Nc6ccc(Cl)cc6)nc5c4)c3s2)nc1` [Compound 46, 1-((6-(7-(2-(4-Chlorophenylamino)benzo[d]oxazol-5-yloxy)thieno[3,2-b]pyridin-2-yl)pyridin-3-yl)methyl)pyrrolidin-2-one], at VEGFR2 (KDR), the IC50 stood at 5 nM. Consider `Clc1ccc(Nc2nc3cc(Oc4ccnc5cc(-c6ccc(CNc7ccc(OCCN8CCOCC8)cc7)cn6)sc45)ccc3o2)cc1` [Compound 18], for which the IC50 on VEGFR2 (KDR) was found to be 23 nM. On to `Clc1ccc(Nc2nc3cc(Oc4ccnc5cc(-c6ccc(CNc7cccc(OCCN8CCOCC8)c7)cn6)sc45)ccc3o2)cc1` [Compound 19], for which the IC50 on VEGFR2 (KDR) is 12 nM.

For the molecule `COCCN(Cc1ccc(-c2cc3nccc(Oc4ccc5oc(Nc6ccccc6)nc5c4)c3s2)nc1)C(C)=O` [Compound 64], the IC50 on VEGFR2 (KDR) came to 47 nM. Regarding `Clc1ccc(Nc2nc3cc(Oc4ccnc5cc(-c6ccc(CNc7cc[nH]n7)cn6)sc45)ccc3o2)cc1` [Compound 17], the IC50 at VEGFR2 (KDR) worked out at 41.3 nM. As to `O=C1CCCN1Cc1ccc(-c2cc3nccc(Oc4ccc5oc(Nc6ccc(Cl)c(C(F)(F)F)c6)nc5c4)c3s2)nc1` [Compound 57], the IC50 on VEGFR2 (KDR) stood at 18 nM. Consider `O=C(c1cc2nccc(Oc3ccc4oc(Nc5ccccc5)nc4c3)c2s1)N1CCCCC1` [Compound 59], for which the IC50 on VEGFR2 (KDR) is 240 nM. Still for that read-out and setting: to `O=C(CO)NC1CCN(Cc2ccc(-c3cc4nccc(Oc5ccc6oc(Nc7ccc(Cl)cc7)nc6c5)c4s3)nc2)CC1` [Compound 12, N-(1-((6-(7-(2-(4-Chlorophenylamino)benzo[d]oxazol-5-yloxy)thieno[3,2-b]pyridin-2-yl)pyridin-3-yl)methyl)piperidin-4-yl)-2-hydroxyacetamide] belongs 6 nM; to `COCCN(Cc1ccc(-c2cc3nccc(Oc4ccc5oc(Nc6ccc(Cl)cc6)nc5c4)c3s2)nc1)C(C)=O` [Compound 62], 4 nM.

With `COc1ccc(Nc2nc3cc(Oc4ccnc5cc(-c6ccc(CN7CCCC7=O)cn6)sc45)ccc3o2)cc1` [Compound 53], the IC50 at VEGFR2 (KDR) was determined as 3 nM.

As for `CCN(CC)CCNC(=O)c1ccc(NCc2ccc(-c3cc4nccc(Oc5ccc6oc(Nc7ccc(Cl)cc7)nc6c5)c4s3)nc2)cc1` [Compound 16, 4-((6-(7-(2-(4-Chlorophenylamino)benzo[d]oxazol-5-yloxy)thieno[3,2-b]pyridin-2-yl)pyridin-3-yl)methyl)amino-N-(2-(diethylamino)ethyl)benzamide], at VEGFR2 (KDR), the IC50 came to 16 nM. For the molecule `CN(C(=O)CO)C1CCN(Cc2ccc(-c3cc4nccc(Oc5ccc6oc(Nc7ccc(Cl)cc7)nc6c5)c4s3)nc2)CC1` [Compound 14], at VEGFR2 (KDR), the IC50 is 5 nM. With `CN(C)[C@H]1CCN(C(=O)c2cc3nccc(Oc4ccc5oc(Nc6ccccc6)nc5c4)c3s2)C1` [Compound 61], the IC50 at VEGFR2 (KDR) stood at 19 nM. On to `O=C1CCCN1Cc1ccc(-c2cc3nccc(Oc4ccc5nc(Nc6cccc(Cl)c6)oc5c4)c3s2)nc1` [Compound 50], for which the IC50 at VEGFR2 (KDR) was determined as 434 nM.

Take `O=C1CCCN1Cc1ccc(-c2cc3nccc(Oc4ccc5oc(Nc6ccc(C(F)(F)F)cc6)nc5c4)c3s2)nc1` [Compound 52]: on VEGFR2 (KDR), the IC50 turned out to be 6 nM. On the same count and under the same terms, to `O=C1CCCN1Cc1ccc(-c2cc3nccc(Oc4ccc5oc(Nc6cccc(F)c6)nc5c4)c3s2)nc1` [Compound 56] belongs 29 nM. Turning to `CC(C)(C)OC(=O)N1CCN(Cc2ccc(-c3cc4nccc(Oc5ccc6oc(Nc7ccc(Cl)cc7)nc6c5)c4s3)nc2)CC1` [Compound 65], the IC50 on VEGFR2 (KDR) was determined as 232 nM. With `O=C1CCCN1Cc1ccc(-c2cc3nccc(Oc4ccc5oc(NC6CC6)nc5c4)c3s2)nc1` [Compound 47], the IC50 on VEGFR2 (KDR) stood at 1560 nM; in assay [1] it was 120 nM.

In the case of `O=C1CCCN1Cc1ccc(-c2cc3nccc(Oc4ccc5oc(Nc6ccccc6Cl)nc5c4)c3s2)nc1` [Compound 54], the IC50 on VEGFR2 (KDR) stood at 139 nM.
